Here are results for one compound from publication PMC9562371 (RSC Advances, 2022).

This test concerns the target T1, m-OLF (myocilin OLF domain) (Homo sapiens, UniProt Q99972).
T1 sequence (Q99972 244-504): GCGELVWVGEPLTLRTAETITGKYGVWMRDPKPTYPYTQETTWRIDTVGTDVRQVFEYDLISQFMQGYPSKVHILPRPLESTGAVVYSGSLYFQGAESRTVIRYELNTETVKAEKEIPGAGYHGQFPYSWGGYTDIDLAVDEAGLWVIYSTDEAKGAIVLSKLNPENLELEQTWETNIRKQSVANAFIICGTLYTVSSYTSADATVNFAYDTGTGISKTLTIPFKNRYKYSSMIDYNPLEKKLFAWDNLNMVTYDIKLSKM
The test can be described thus: surface plasmon resonance. The class given is binding.

For orientation: Kd means the constant that tells how readily two partners part at equilibrium. A high value points to a looser complex. Consider `O=C(O[C@@H]1Cc2c(O)cc(O)cc2O[C@@H]1c1ccc(O)c(O)c1)c1cc(O)c(O)c(O)c1` [ECG], for which the Kd is 19.8 µM.
